Experimental data from PubChem BioAssay AID1645866 (Buhrlage Lab, Dana-Farber Cancer Institute and Novartis …, 2021).
The source made the active and inactive calls.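 The calls were made as follows: active = in confirmatory dose-response testing, peak deubiquitinase inhibition of 30% or more; inactive = the rest.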

Molecular target: Ubiquitin carboxyl-terminal hydrolase 28 (Homo sapiens) (UniProt Q96RU2)
Assay: Concentration-response biochemical assay confirming initial hits as inhibitors of ubiquitin-specific protease 28 (AID 1645866)
Conditions: purified USP28, ubiquitin-rhodamine fluorescence, 30 min

Chain of Ubiquitin carboxyl-terminal hydrolase 28 (Homo sapiens) (Q96RU2 whole entry, looked up): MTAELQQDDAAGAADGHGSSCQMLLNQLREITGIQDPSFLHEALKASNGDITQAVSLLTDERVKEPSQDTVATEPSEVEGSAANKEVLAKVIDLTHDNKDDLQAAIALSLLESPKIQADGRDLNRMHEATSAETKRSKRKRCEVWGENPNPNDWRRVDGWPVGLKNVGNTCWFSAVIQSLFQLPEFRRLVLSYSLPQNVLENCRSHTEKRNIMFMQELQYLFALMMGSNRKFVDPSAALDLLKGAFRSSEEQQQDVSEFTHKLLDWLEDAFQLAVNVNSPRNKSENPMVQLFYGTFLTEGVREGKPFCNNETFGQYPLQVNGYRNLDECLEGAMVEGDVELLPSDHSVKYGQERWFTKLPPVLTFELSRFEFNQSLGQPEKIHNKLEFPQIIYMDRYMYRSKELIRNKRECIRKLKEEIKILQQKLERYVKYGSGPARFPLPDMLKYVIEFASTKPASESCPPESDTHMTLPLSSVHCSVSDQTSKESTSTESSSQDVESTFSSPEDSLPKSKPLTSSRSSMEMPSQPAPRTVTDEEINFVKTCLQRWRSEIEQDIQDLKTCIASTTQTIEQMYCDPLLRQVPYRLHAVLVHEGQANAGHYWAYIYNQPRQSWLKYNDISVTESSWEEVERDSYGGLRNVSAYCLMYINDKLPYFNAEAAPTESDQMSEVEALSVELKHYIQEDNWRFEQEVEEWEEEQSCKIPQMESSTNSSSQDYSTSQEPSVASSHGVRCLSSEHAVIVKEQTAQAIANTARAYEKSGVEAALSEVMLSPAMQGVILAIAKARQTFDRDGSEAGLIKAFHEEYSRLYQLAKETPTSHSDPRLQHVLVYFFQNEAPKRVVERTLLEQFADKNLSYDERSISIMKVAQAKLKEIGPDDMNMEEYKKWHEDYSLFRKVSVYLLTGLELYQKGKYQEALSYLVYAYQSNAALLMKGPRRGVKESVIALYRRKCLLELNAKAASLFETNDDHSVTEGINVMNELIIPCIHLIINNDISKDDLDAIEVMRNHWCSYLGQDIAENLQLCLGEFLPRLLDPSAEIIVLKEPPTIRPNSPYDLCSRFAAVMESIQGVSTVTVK

Row | SMILES | IC50
1 | Cn1c(CN2CCCCCC2)nc2cc(NC(=O)c3ccccc3)ccc21 | > 50 µM (inactive)
2 | O=C(NCc1ccncc1)C1CCN(c2cncnc2N2CCCCC2)CC1 | 1.82 µM
3 | N#Cc1cccc(NC(=O)Nc2cccn(Cc3ccccc3F)c2=O)c1 | 4.02 µM
4 | CC(=O)Nc1ccc(S(=O)(=O)NCc2ccc(C(=O)NCCc3ccc(Cl)cc3)cc2)cc1 | 1.77 µM
5 | CCc1ccc(NC(=O)Cc2nnc(-c3ccc4ncccc4c3)o2)cc1 | 25.9 µM
6 | NS(=O)(=O)c1cccc(NC(=O)CN2CCCc3ccccc32)c1 | > 50 µM (inactive)
7 | COc1ccc2nc(SCC(=O)Nc3ccc(NC(C)=O)cc3)c(C)cc2c1 | 9.45 µM
8 | Cc1cc(O)c2c3c(c(O)cc2c1)C(=O)c1c(O)cccc1C3=O | 1.89 µM
9 | COc1cc2c(cc1OC)-c1cc(Nc3ccc(Br)cc3)nc(=O)n1CC2 | 1.84 µM
10 | COc1cccc(NC(=O)Nc2nccn(-c3ccc(F)cc3)c2=O)c1 | 18.3 µM
11 | COc1ccc(C(=O)C2CC(=O)Nc3c2c(C)nn3-c2ccc(Br)cc2)cc1 (configuration not stated) | 20.1 µM
12 | Cc1cc(C(=O)Nc2cc(C)n(Cc3ccc(Cl)cc3)n2)no1 | 13.4 µM
13 | O=C(COc1ccc(Cl)cc1)NCc1nnc(SCC(=O)NCc2ccc3c(c2)OCO3)o1 | 28.4 µM
14 | Clc1cncc(Oc2nc(-c3cccnc3)nc3ccccc23)c1 | 9.69 µM
15 | Cc1nnc(C(=O)Nc2ccc(C(=O)NCc3ccccc3C)cc2)s1 | 16.2 µM
16 | Cc1noc(-c2cccc(=O)n2CC(=O)Nc2ccc(C)c(C)c2)n1 | 17.4 µM
17 | COc1ccc(CNC(=O)c2ccccc2N2C(=O)N3CCc4c([nH]c5ccccc45)[C@@]3(C)C2=O)cc1 | 37.4 µM
18 | Cn1c(COc2ccccc2)nnc1SCC(=O)Nc1ccc(N2CCOCC2)cc1 | 2.43 µM
19 | COc1cnc(CSc2ncccn2)cc1OCC(=O)Nc1cc(C)ccc1C | > 50 µM (inactive)
20 | Cc1noc(C)c1COc1cccc(C(=O)Nc2cc(Cl)ccc2-n2cncn2)c1 | > 50 µM (inactive)
21 | COc1cc(C2SCC(=O)Nc3c2c(-c2ccccc2)nn3-c2ccccc2)cc(OC)c1OC (configuration not stated) | 3.37 µM
22 | CCOc1ccc(CC(=O)Nc2ccc(-c3cn4cccnc4n3)cc2)cc1 | 14.6 µM
23 | Cc1ccc(NC(=O)c2ccc(N3CCOCC3)nn2)cc1F | 45.6 µM
24 | N#Cc1ccccc1Cn1c(=O)n(Cc2ccco2)c(=O)c2ccccc21 | 7.54 µM
25 | Cc1ccc(C)c(Nc2cc(C)nc3nc(-c4ccco4)nn23)c1 | > 50 µM (inactive)
26 | Cc1ccc2c(c1C)NC(=O)[C@]21[C@@H]2C(=O)N(c3cc(Cl)ccc3Cl)C(=O)[C@@H]2[C@@H]2CCCN21 | > 50 µM (inactive)

Row | SMILES | IC50
27 | COc1ccc(CCNC(=O)c2cc3ccccc3s2)cc1OC | 2.07 µM
28 | O=C1N(Cc2ccc(F)cc2)CCN1c1ccc2c(c1)CCC2 | 40.8 µM
29 | O=C(Nc1cccc(Cl)c1)c1ncn2c1CNS(=O)(=O)c1ccccc1-2 | 13.4 µM
30 | CC1CC(=O)N(Cc2ccc([N+](=O)[O-])cc2)c2ccccc2S1 (configuration not stated) | 13.3 µM
31 | CNC(=O)c1cc2nc(N(C)C)n(-c3ccccc3)c2s1 | 27.1 µM
32 | O=C(Nc1ccc2c(c1)OCCO2)C1CCN(C(=O)c2ccccc2)CC1 | 9.44 µM
33 | CC(C)NC(=O)Cn1ccn2nc(-c3ccc(Cl)cc3)cc2c1=O | 8.61 µM
34 | CCCCc1nc2sc3c(SCC(=O)Nc4cccc(C)c4)ncnc3c2c2c1CCC2 | 14 µM
35 | COc1ccc(CNC(=O)CCc2nnc3n(Cc4ccccc4Cl)c(=O)c4ccccc4n23)cc1 | 2.18 µM
36 | CCCN1CCN(C(=O)c2cc(NC(=O)C3CCC3)cc3nc(C)ccc23)CC1 | > 50 µM (inactive)
37 | Cc1ccc2cccc(OCc3nnc(SCC(=O)c4ccc(Cl)cc4)n3C)c2n1 | 4.77 µM
38 | O=C(NC1CCN(Cc2ccccc2)CC1)c1[nH]nc2c1CCc1ccccc1-2 | 6.27 µM
39 | Cc1ccccc1C(=O)NCCn1cc(SCC(=O)Nc2ccc3c(c2)OCCO3)c2ccccc21 | 35.1 µM
40 | Cc1cc(C)n2nc(CNc3cccc(Cl)c3)nc2n1 | 16.4 µM
41 | CSc1ccccc1C(=O)Nc1sc2c(c1C(N)=O)CCC(C)C2 (configuration not stated) | 2.78 µM
42 | Cc1ccc(OCCn2c(=N)n(C(C)C)c3ccccc32)cc1 | 2.13 µM
43 | Nc1c(C(=O)Nc2ccc3c(c2)OCO3)sc2nc(-c3cccnc3)ccc12 | 1.98 µM
44 | CC(=O)c1cc2c(=O)c3c(C(=O)O)c(O)c(O)cc3oc2c(C(C)=O)c1-c1coc2cc(O)c(O)c(C(=O)O)c2c1=O | 1.77 µM
45 | Cc1ccc(NC2=NC(c3ccco3)n3c(nc(C)cc3=O)N2)c(C)c1 (configuration not stated) | 8.38 µM
46 | O=C(NCc1nc2ccccc2[nH]1)c1cccc(S(=O)(=O)N2CCc3ccccc32)c1 | 31.4 µM
47 | O=C(Cc1ccccc1F)N1CCC2(CC1)CC1(CO2)Nc2ccccc2-n2cccc21 (configuration not stated) | > 50 µM (inactive)
48 | COc1cccc(CCNC(=O)CCn2c(=O)c(C)nc3cc(C)c(C)cc32)c1 | > 50 µM (inactive)
49 | O=C(COc1nsnc1N1CCOCC1)Nc1ccccc1F | > 50 µM (inactive)
50 | O=C(Cc1cc(-c2ccc(F)cc2)on1)NCc1ccccc1 | 22.1 µM
51 | CSc1ncccc1C(=O)NC1(O)C(=O)c2ccccc2C1=O | 29 µM
52 | COc1ccc(-c2cc(N3CCC(NC(=O)c4ccccc4)C3)n[nH]2)cc1 (configuration not stated) | 16 µM

Row | SMILES | IC50
53 | COc1ccc(-c2cc(-c3nnc(CSc4nc5ccccc5n4C)o3)c3ccccc3n2)cc1OC | > 50 µM (inactive)
54 | Cc1cccc(CNC(=O)c2ccc(-c3nnc(-c4cccc(C)c4)o3)cc2)c1 | 17.7 µM
55 | COc1cc(/C=C/C(=O)OCC(=O)Nc2ccc([N+](=O)[O-])cc2OC)ccc1O | 18.8 µM
56 | Cn1c(=O)c(C(=O)CN2CCN(c3ccc(O)cc3)CC2)c(N)n(Cc2ccccc2)c1=O | 49.4 µM
57 | COC(=O)c1ccc2c(=O)n(CCCCCC(=O)NCc3cccc(Cl)c3)c(=O)[nH]c2c1 | 2.05 µM
58 | Cc1ccccc1N1C(=O)/C(=C\c2cccn2C)c2ccccc2C1=O | > 50 µM (inactive)
59 | COc1ccccc1C(=O)N1CCC(S(=O)(=O)c2ccc(-c3ccco3)cc2)CC1 | 42.9 µM
60 | O=C(CSc1cn(Cc2ccccc2)c2ccccc12)Nc1ccc2c(c1)OCCO2 | 17.2 µM
61 | CSc1ccc(CNC(=O)CC2CCN(S(=O)(=O)c3ccc(C)cc3)CC2)cc1 | 16.3 µM
62 | CC(=O)c1ccc(Cc2ncc(C(F)(F)F)cc2Cl)s1 | 6.83 µM
63 | CCN1C[C@@H]2C[C@]2(c2ccccc2OC)C(=O)c2ncccc21 | > 50 µM (inactive)
64 | O=c1c2ccccc2ncn1C1CCN(S(=O)(=O)c2ccccc2F)CC1 | 30.6 µM
65 | O=C(c1ccc2occc2c1)N1CCC(S(=O)(=O)c2ccc(-c3ccco3)cc2)CC1 | > 50 µM (inactive)
66 | O=C(CNC(=O)c1cc2ccccc2o1)Nc1ccc2c(c1)OCCO2 | 18.3 µM
67 | Cc1ccc(O)c(-c2cc(C(=O)Nc3ccccc3Cl)[nH]n2)c1 | 17.1 µM
68 | CCCN1C=NS(=O)(=O)c2cc(C(=O)Nc3ccc(OC)c(Cl)c3)ccc21 | 35.2 µM
69 | CCN(CC)c1nc(F)c2c(c1F)S(=O)(=O)CCN2Cc1ccccc1 | > 50 µM (inactive)
70 | CCOC(=O)N1CCN(S(=O)(=O)c2ccc(C(=O)Nc3ccc(Br)cc3)cc2)CC1 | 18.3 µM
71 | O=C(Nc1ccc(NS(=O)(=O)c2ccc3c4c(cccc24)CC3)cc1)c1ccccc1 | 37.7 µM
72 | O=C(COC(=O)c1cc(Cl)ccc1O)Nc1ccc2c(c1)OCCO2 | 24.3 µM
73 | CC1=C(c2ccc(F)cc2)S(=O)(=O)NC1=NCC(=O)Nc1ccc(F)cc1F | 41.1 µM
74 | O=C(/C=C/c1ccc(F)cc1)N1CCC(Cc2ccccc2)CC1 | 47.4 µM
75 | CCCCNc1nc2c(-c3ccccc3)nnn2c2ccccc12 | 6.63 µM
76 | Cc1noc(-c2cccn(Cc3cccc(C(F)(F)F)c3)c2=O)n1 | 8.11 µM
77 | Oc1ccc(-c2nc3ccc(Cl)cn3c2NC2CCCCC2)cc1 | 23 µM
78 | CCN(C(=O)c1cc2c(s1)-c1ccccc1OC2)c1ccccc1F | 19.6 µM

Row | SMILES | IC50
79 | COc1ccc(OC)c2c(C)cc(N3CCN(S(=O)(=O)c4ccc5c(c4)CCCN5S(C)(=O)=O)CC3)nc12 | 17.9 µM
80 | O=c1ccc(-c2noc(Cc3cccc(Cl)c3)n2)c[nH]1 | 0.0563 µM
81 | O=c1ccc(-c2noc(-c3ccc4cc[nH]c4c3)n2)c[nH]1 | > 50 µM (inactive)
82 | Cc1ccc(CSC2=NS(=O)(=O)c3ccccc3N2)cc1 | 16.2 µM
83 | Cc1cnnn1-c1ccc(C(=O)Nc2ccc(Cl)cc2)cc1 | 20.3 µM
84 | Cc1c(C(=O)NCc2cccc(Br)c2)oc2c1-c1[nH]ncc1CC2 | 29.5 µM
85 | O=C(NCC(c1cccnc1)N1CCc2ccccc2C1)C(=O)Nc1ccc2c(c1)OCO2 (configuration not stated) | 28.8 µM
86 | Cc1c(-c2nc(-c3ccccc3Cl)no2)nnn1-c1cccc(F)c1 | 14.2 µM
87 | CCCCCn1c(Sc2ccc(C)cc2)nc2c1c(=O)[nH]c(=O)n2C | 14.5 µM
88 | O=C(Nc1ccccc1)C1CCCN(C(=O)c2cc3ccccc3[nH]2)C1 (configuration not stated) | 39.1 µM
89 | C/C1=C/CC(O)/C=C/C(C)C(O)C(C)/C=C(\C)C(=O)c2c(O)c(C)cc3c2C(=O)C(Cl)=C(NC(=O)\C=C/C=C/C=C\C(C)C(O)CC1=O)C3=O (configuration not stated) | 31.3 µM
90 | COc1ccc2[nH]c3c(c2c1)CCN1C(=O)N(c2ccccc2C(=O)NCc2ccccc2)C(=O)[C@]31C | 46.4 µM
91 | Cc1nn(-c2ccc(F)cc2)cc1-c1noc(C(=O)NCc2ccccn2)n1 | 22.8 µM
92 | CCn1c(CN2CCCC(c3nc(-c4cccnc4)n[nH]3)C2)nc2ccccc21 (configuration not stated) | 3.13 µM
93 | COc1ccc(NC(=O)c2nnc(C(=O)NCCN3CCCCCC3)s2)cc1 | 12.2 µM
94 | O=C1N[C@@H](Cc2ccccc2)C(=O)N2[C@H]3Nc4ccccc4[C@@]3([C@]34C[C@H]5C(=O)N[C@@H](Cc6ccccc6)C(=O)N5[C@H]3Nc3ccccc34)C[C@@H]12 | 29.4 µM
95 | Cc1noc(-c2cc(=O)n(CC(=O)NCc3ccccc3)c3ccccc23)n1 | 25.1 µM
96 | Cc1cc(NC(=O)Cn2c(=O)n(CCCCC(=O)NCc3ccco3)c(=O)c3ccccc32)ccc1Br | 2.36 µM
97 | Cc1nn(Cc2ccccc2)c(Cl)c1C(=O)NC1CCCc2ccccc21 (configuration not stated) | > 50 µM (inactive)
98 | O=C1N(Cc2cccc(Cl)c2)CCN1c1ccc2c(c1)CCC2 | 18.2 µM
99 | COc1ccc(OCCn2c(C3CC(=O)N(c4cccc(C)c4)C3)nc3ccccc32)cc1 (configuration not stated) | 1.57 µM
100 | Cn1nc(-c2nc(-c3ccccc3)no2)c2c1CCN(C(=O)C1CCCC1)C2 | 24.1 µM
101 | COc1ccc(C2C(C(=O)C(C)(C)C)N3c4ccccc4C=CC3C23C(=O)c2ccccc2C3=O)c(OC)c1 (configuration not stated) | > 50 µM (inactive)
102 | N#Cc1cccc(NC(=O)Cn2cccc(-c3nc(-c4ccccc4)no3)c2=O)c1 | > 50 µM (inactive)
